Laboratory results as given in patent US8771611B2, “System and methods of log-scale concentration gradients” (Auburn University, priority 2011, dated 2014).
Where two headings read alike, the source gives them in different places.

What was measured:
MMP-9 enzyme [1] = target: T1, MMP-9 enzyme (Homo sapiens, UniProt P14780); assay: off-chip experiment, IC50 of MMP-9 inhibitors; format: biochemical; conditions: read-out: IC50 from the off-chip experiment
Source text: These deviations in the values of IC50 are acceptable, considering enzyme as a biological sample with variable properties.

[2] = target: matrix metalloproteases-9 (MMP-9) (Homo sapiens, UniProt P14780); assay: on-chip (microfluidic chip) logistic dose response of MMP-9 inhibitors, fluorogenic MMP substrate III; format: biochemical; conditions: for deviation in the IC50 values between on-chip and off-chip experiment: comparison on-chip vs off-chip; for IC50: on-chip, 22.15 μM substrate, 5 nM enzyme, inhibitor range 0.063 nM~250 nM, four parameter logistic fit, read-out: IC50 (on-chip, from dose response plots)
Source text: Therefore, a concentration range of 0 to 1000×, in logarithmic scale, is able to be generated in a single experiment.
To determine the kinetic parameters, KM and kcat, the initial velocities of the individual reactions are able to be curve-fitted with the Michaelis-Menten equation using the enzyme kinetics module of Sigmaplot software (Systat software Inc.). For IC50 values with standard error, and 95% confidence interval, the four parameter nonlinear-logistic-regression model available to the inhibition data are curve-fitted. The four parameter model is of the form as shown in the equation (1) below.
[formula] Where, IC50 refers to median point of the concentration-response plot; [I] represents the concentration of inhibitor; h is the Hill coefficient or Hill slope, which means the steepness of dose-response plot; %I designates percentage inhibiting potency, including minimum and maximum.
Therefore, by introducing the three concentrations of inhibitor and buffer, meaningful logarithmic concentrations for dose response are generated such as 0, 1, 2.5, 5, 7.5, 10, 25, 50, 75, 100, 250, 500, 750 and 1000× by the device disclosed herein in semi-direct dilution.
An inhibitor concentration range of 0.063 nM˜250 nM (1:4000) is created on the chip in the 14 reactors. Note that, all the 14 reactors are used considering the requirement of a wider concentration range of inhibitors (FIG. 2D), 22.15 μM of substrate and 5 nM of enzyme are used, respectively.
The substrate QXLTM520-Pro-Leu-Gly-Cys-(Me)-His-Ala-D-Arg-Lys-(5-carboxy-fluorescein)-NH2 (AnaSpec Inc), internally quenched peptide matrix of matrix metalloproteinases-9 (MMP-9) is used for the enzyme reaction. This substrate releases fluorescent signals through dissociation of the quencher (QXLTM520) and carboxyfluorescein (FAM), fluorophore, via proteolytic cleavage by enzymatic reaction. […] For establishing a standard curve, reference dye, FAM-Pro-Leu-OH is used. The excitation and emission wavelengths for FAM are 480 nm and 520 nm, respectively. According to the enzyme reaction types, 50 nM, 10 nM, and 5 nM of MMP-9 are separately dissolved into the reaction buffer (TCNBT; 50 mM Tris, 10 mM CaCl2, 150 mM NaCl, 0.05% Brij-35, 0.05% Tween-20 and 0.1% BSA at pH 7.5). For the substrate of MMP, a stock solution is prepared as 100 μM in TCNBT buffer. […] Prepared reagents are stored at −20 ° C. until dilution with TCNBT buffer for experiment.

MMP-9 enzyme [3] = target: T1, MMP-9 enzyme; conditions: from some literature; read-out: reported IC50 values from literature; cited from earlier work

T1 sequence (P14780 94-707): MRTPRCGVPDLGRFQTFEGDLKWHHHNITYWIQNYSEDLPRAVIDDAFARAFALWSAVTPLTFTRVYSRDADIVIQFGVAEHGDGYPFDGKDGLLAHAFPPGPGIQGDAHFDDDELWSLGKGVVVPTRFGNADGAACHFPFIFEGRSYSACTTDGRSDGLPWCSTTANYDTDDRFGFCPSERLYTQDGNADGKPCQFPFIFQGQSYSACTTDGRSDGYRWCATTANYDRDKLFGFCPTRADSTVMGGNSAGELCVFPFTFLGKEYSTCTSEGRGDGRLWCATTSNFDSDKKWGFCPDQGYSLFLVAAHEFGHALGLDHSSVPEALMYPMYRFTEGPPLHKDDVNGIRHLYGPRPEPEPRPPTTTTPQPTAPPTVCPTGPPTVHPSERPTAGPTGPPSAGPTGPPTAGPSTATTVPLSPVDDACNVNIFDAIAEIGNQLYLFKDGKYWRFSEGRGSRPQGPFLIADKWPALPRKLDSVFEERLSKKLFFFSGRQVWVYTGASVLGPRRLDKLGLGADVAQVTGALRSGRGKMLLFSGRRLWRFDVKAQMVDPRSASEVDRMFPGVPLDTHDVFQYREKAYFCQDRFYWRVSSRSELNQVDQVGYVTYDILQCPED
Sequence of matrix metalloproteases-9 (MMP-9) (P14780 94-707): as above

| IC50 (MMP-9 enzyme [1]) [nM] | deviation in the IC50 values between on-chip and off-chip experiment [2] [%] | IC50 [2] [nM] | SMILES | IC50 (MMP-9 enzyme [3]) [nM] |
| --- | --- | --- | --- | --- |
| 14.9 ± 0.9 | 20 | 11.9 ± 1 | CC(C)(NS(=O)(=O)c1ccc(Oc2ccc(F)cc2)cc1)C(=O)NO [CP417474] | – |
| 3.5 ± 0.3 | – | 4.1 ± 0.2 | CNC(=O)[C@H](Cc1ccccc1)NC(=O)[C@H](CC(C)C)[C@H](CSc1cccs1)C(=O)NO [batimastat] | 3 to 4 |
| – | 3.2 | – | CNC(=O)[C@@H](NC(=O)[C@H](CC(C)C)[C@H](O)C(=O)NO)C(C)(C)C [marimastat] | – |
